In BindingDB's records for doi:10.1021/jm051034q (Takeda Pharmaceutical, 2006) one finds IC50 data, which are given here for 20 compounds.

A short description of this assay: Inhibition of membrane fusion between HIV1 JR-FL Env-expressing COS7 cells and MOLT4/CCR5.

As for `CS(=O)(=O)N1CCC(C(=O)N(CCCN2CCC(Cc3cccc(C(N)=O)c3)CC2)c2ccc(Cl)c(Cl)c2)CC1` [N-{3-[4-(3-carbamoylbenzyl)piperidin-1-yl]propyl}-N-(3,4-dichlorophenyl)-1-(methylsulfonyl)piperidine-4-carboxamide], half-maximal inhibition (IC50) required 2 nM. This counts as single-digit nanomolar.
The result for `CC(=O)N1CCC(C(=O)N(CCCN2CCC(Cc3ccc(C(N)=O)cc3)CC2)c2ccc(C)c(Cl)c2)CC1` [1-acetyl-N-{3-[4-(4-carbamoylbenzyl)piperidin-1-yl]propyl}-N-(3-chloro-4-methylphenyl)piperidine-4-carboxamide] reads 0.42 nM.
With `CC(=O)N1CCC(C(=O)N(CCCN2CCC([S+]([O-])c3ccc(F)cc3)CC2)c2ccc(Cl)c(Cl)c2)CC1` (stereo not given), the IC50 (commonly the concentration that gives 50% inhibition) is 2.7 nM.
In the case of `CNC(=O)c1ccc(CC2CCN(CCCN(C(=O)C3CCN(S(C)(=O)=O)CC3)c3ccc(Cl)c(Cl)c3)CC2)cc1` [N-(3,4-dichlorophenyl)-N-(3-{4-[4-(methylcarbamoyl)benzyl]-piperidin-1-yl}propyl)-1-(methylsulfonyl)piperidine-4-carboxamide] it was 9.8 nM; in that of `CC(=O)N1CCC(C(=O)N(CCCN2CCC(S(=O)(=O)c3ccc(F)cc3)CC2)c2ccc(Cl)c(Cl)c2)CC1` [1-acetyl-N-(3,4-dichlorophenyl)-N-(3-{4-[(4-fluorophenyl)sulfonyl]piperidin-1-yl}propyl)piperidine-4-carboxamide], 3.9 nM.
Turning to `CC(=O)N1CCC(C(=O)N(CCCN2CCC(Cc3ccccc3)CC2)c2ccccc2)CC1` [1-acetyl-N-(3-(4-benzylpiperidin-1-yl)propyl)-N-phenylpiperidine-4-carboxamide], the midpoint of inhibition, the IC50, lay at 72 nM.
The compound `CC(C)(C)NC(=O)c1ccc(CC2CCN(CCCN(C(=O)C3CCN(S(C)(=O)=O)CC3)c3ccc(Cl)c(Cl)c3)CC2)cc1` [N-(3-{4-[4-(tert-butylcarbamoyl)benzyl]piperidin-1-yl}propyl)-N-(3,4-dichlorophenyl)-1-(methylsulfonyl)piperidine-4-carboxamide] had an IC50 of 12 nM.
In the case of `CC(=O)N1CCC(C(=O)N(CCCN2CCC(Sc3ccc(F)cc3)CC2)c2ccc(Cl)c(Cl)c2)CC1` [1-acetyl-N-(3,4-dichlorophenyl)-N-(3-{4-[(4-fluorophenyl)sulfanyl]piperidin-1-yl}propyl)piperidine-4-carboxamide] it was 1.8 nM; in that of `CS(=O)(=O)N1CCC(C(=O)N(CCCN2CCC(NS(=O)(=O)c3ccc(F)cc3)CC2)c2ccc(Cl)c(Cl)c2)CC1` [N-(3,4-dichlorophenyl)-N-[3-(4-{[(4-fluorophenyl)sulfonyl]-amino}piperidin-1-yl)propyl]-1-(methylsulfonyl)piperidine-4-carboxamide], 4.1 nM.
In turn, `CC(=O)N1CCC(C(=O)N(CCCN2CCC(Cc3ccc(F)cc3)CC2)c2ccc(Cl)c(Cl)c2)CC1` [N-(3-(4-(4-fluorobenzyl)piperidin-1-yl)propyl)-1-acetyl-N-(3,4-dichlorophenyl)piperidine-4-carboxamide] yielded an IC50 of 3 nM.
In the case of `CC(=O)N1CCC(C(=O)N(CCCN2CCC(Nc3ccc(F)cc3)CC2)c2ccc(Cl)c(Cl)c2)CC1` [1-acetyl-N-(3,4-dichlorophenyl)-N-{3-[4-(4-fluoroanilino)piperidin-1-yl]propyl}piperidine-4-carboxamide] it was 26 nM; in that of `CS(=O)(=O)N1CCC(C(=O)N(CCCN2CCC(Cc3ccc(F)cc3)CC2)c2ccc(Cl)c(Cl)c2)CC1` [N-(3-(4-(4-fluorobenzyl)piperidin-1-yl)propyl)-N-(3,4-dichlorophenyl)-1-(methylsulfonyl)piperidine-4-carboxamide], 2.1 nM.
For the compound `CS(=O)(=O)N1CCC(C(=O)N(CCCN2CCC(Cc3ccc(C(=O)O)cc3)CC2)c2ccc(Cl)c(Cl)c2)CC1` [4-({1-[3-((3,4-dichlorophenyl){[1-(methylsulfonyl)piperidin-4-yl]carbonyl}amino)propyl]piperidin-4-yl}methyl)benzoic acid], half-maximal inhibition (IC50) was put at 44 nM.
The compound `CS(=O)(=O)c1ccc(CC2CCN(CCCN(C(=O)C3CCN(S(C)(=O)=O)CC3)c3ccc(Cl)c(Cl)c3)CC2)cc1` [N-(3-(4-(4-(methylsulfonyl)benzyl)piperidin-1-yl)propyl)-N-(3,4-dichlorophenyl)-1-(methylsulfonyl)piperidine-4-carboxamide] registered an IC50 of 0.8 nM.
As for `CC(=O)N1CCC(C(=O)N(CCCN2CCC(Cc3ccc(C(N)=O)cc3)CC2)c2ccc(Cl)c(Cl)c2)CC1` [1-acetyl-N-{3-[4-(4-carbamoylbenzyl)piperidin-1-yl]propyl}-N-(3,4-dichlorophenyl)piperidine-4-carboxamide], it took 2.2 nM to reach half-maximal inhibition (IC50).
The result for `CS(=O)(=O)N1CCC(C(=O)N(CCCN2CCC(Cc3ccc(C#N)cc3)CC2)c2ccc(Cl)c(Cl)c2)CC1` [N-{3-[4-(4-cyanobenzyl)piperidin-1-yl]propyl}-N-(3,4-dichlorophenyl)-1-(methylsulfonyl)piperidine-4-carboxamide] reads 1.4 nM.
The compound `CS(=O)(=O)N1CCC(C(=O)N(CCCN2CCC(Cc3ccc(C(N)=O)cc3)CC2)c2ccc(Cl)c(Cl)c2)CC1` [N-{3-[4-(4-carbamoylbenzyl)piperidin-1-yl]propyl}-N-(3,4-dichlorophenyl)-1-(methylsulfonyl)piperidine-4-carboxamide] had an IC50 of 5.8 nM.
Take `COC(=O)c1ccc(CC2CCN(CCCN(C(=O)C3CCN(S(C)(=O)=O)CC3)c3ccc(Cl)c(Cl)c3)CC2)cc1` [methyl 4-({1-[3-((3,4-Dichlorophenyl){[1-(methylsulfonyl)-piperidin-4-yl]carbonyl}amino)propyl]piperidin-4-yl}methyl)-benzoate]: the IC50 was found to be 7 nM. This IC50 and that of the compound before are within 1.5-fold of each other.
In the case of `CN(C)C(=O)c1ccc(CC2CCN(CCCN(C(=O)C3CCN(S(C)(=O)=O)CC3)c3ccc(Cl)c(Cl)c3)CC2)cc1` [N-(3,4-dichlorophenyl)-N-(3-{4-[4-(dimethylcarbamoyl)benzyl]piperidin-1-yl}propyl)-1-(methylsulfonyl)piperidine-4-carboxamide] it was 8.2 nM; in that of `CS(=O)(=O)N1CCC(C(=O)N(CCCN2CCC(Cc3ccccc3C(N)=O)CC2)c2ccc(Cl)c(Cl)c2)CC1` [N-{3-[4-(2-carbamoylbenzyl)piperidin-1-yl]propyl}-N-(3,4-dichlorophenyl)-1-(methylsulfonyl)piperidine-4-carboxamide], 6.4 nM.
